Data as given in patent US7785583B2, “In situ maturation of dendritic cells” (Argos Therapeutics, Inc., priority 2002, dated 2010).

Legend:
[1] = system: OVA-expressing EL-4 cells; assay: Induction of OVA-specific CTL in mice immunized with OVA mRNA transfected DC (standard cytotoxicity assay); format: in vivo, mice (C57BL/6)
Protocol: FIG. 4 is a graph depicting the induction of OVA CTL in mice immunized with OVA mRNA transfected DC. Mice were immunized as described in FIG. 3 except that DC were not stained with CFSE. Splenocytes were harvested after 8 days and either analyzed directly for CTL (left panel) or incubated for 5 days in the presence of OVA mRNA transfected DC (right panel). CTL activity was determined using a standard cytotoxicity assay and OVA-expressing EL-4 cells, and EL-4 cells as targets. (iDC: immature DC; mDC: mature DC; solid gray square: iDC and OVA-expressing EL-4 cells; solid black oval: […] adjuvant and OVA-expressing EL-4 cells; solid black square: mDC and OVA-expressing EL-4 cells; open gray square: iDC and EL4 cells; open black oval: […] adjuvant and EL4 cells; open black square: mDC and EL4 cells). FIG. 5 is a graph depicting the induction of OVA specific CTL with immature DC during in situ maturation with Imiquimod (sold under the trademark […] by 3M of St. Paul, Minn., United States of America) and poly arginine. Experimental details are as described for FIG. 4. Here, in addition to […] adjuvant, Imiquimod ([…] brand) and poly arginine (poly-arg) were used to induce local “inflammation” prior to immunization with the OVA mRNA transfected immature DC. The […] clinically approved cream formulation of Imiquimod was applied to the ear surface 15 minutes prior to DC injection. Poly-arg was injected into the ear pinna (50 μl; 100 μg/ml) 15 minutes prior to DC injection. (open square: iDC; solid circle: […] adjuvant; solid triangle: […] adjuvant; open triangle: iDC+poly-arginine; solid square: mDC). FIG. 6 is a graph depicting the induction of OVA specific CTL with immature DC during in situ maturation with Imiquimod ([…] brand). […] Antigen loaded immature or mature DC were injected into the ear pinna and mice were evaluated for (a) migration of the DC to the draining auricular lymph node or (b) induction of OVA CTL. […] See […], Mohr H., “A fluorescence-based assay for quantitation of lymphokine-activated killer cell activity”, J Immunol Methods (1989) 119:45-51.

[2] = system: immature DC injected into the ear pinna; assay: Migration of CFSE-labelled injected DC to the draining auricular lymph node (flow cytometry); format: in vivo, mice (C57BL/6); conditions: interval between adjuvant application and DC injection extended to 4 hours; determined as in FIG. 3
Protocol: FIG. 3 depicts flow cytometry analysis of the migration of DC to the draining lymph nodes. Immature or mature DC were transfected with OVA mRNA and incubated with CFSE. Cells were washed and 3×10^5 DC were injected into the ear pinna. […] United States of America). Twenty-four hours post […] of the DC, the draining auricular lymph node was dissected, a cell suspension generated, and cells were analyzed by flow cytometry. To identify the DC subset, cells gated for CD11c^+ granular cells (upper panels) were analyzed for class II expression and CFSE content (lower panels). Injected DC are class II^high CFSE^+ (UR quadroon) whereas the class II^highCFSE^− represent the resident and newly arrived, endogenous, DC (UL quadroon). The percentages shown in the UR quadroons constitute the percentage of CFSE^+ DC injected into the ear found in the lymph node.
Marrow from tibias and femurs of C57BL/6 mice were harvested followed by treatment of the precursors with ammonium chloride Tris buffer for 3 min at 37° C. to deplete the red blood cells. The precursors were plated in RPMI-5% FCS with GM-CSF (15 ng/ml) and IL-4 (10 ng/ml). GM-CSF-containing supernatant was harvested after 24 h capillary culture from GM-CSF producing melanoma cell line (F10.9/GM-CSF) and IL-4 was obtained from Peprotech (Rocky Hill, N.J., United States of America). The concentration of GM-CSF used was determined by ELISA. […]

[3] = FIG. 5, injection site pretreated 15 minutes prior to injection of OVA mRNA transfected immature DC

CC(C)Cn1cnc2c(N)nc3ccccc3c21 [Imiquimod]
CTL response (OVA-specific CTL) [1, 3]: almost as effective as ADJUPRIME™ adjuvant
CTL response (OVA-specific CTL) ([1]; FIG. 6, Imiquimod (ALDARA brand) applied 4 hours before injection of OVA mRNA transfected immature DC): more potent CTL response than the ex vivo matured DC
migration, % of the injected DC [2]: 9.2%

poly arginine [poly-arg]
CTL response (OVA-specific CTL) [1, 3]: the effect of poly-arg is small
